Source: PMC12473014, “Granzyme B PET Imaging Enables Early Assessment of Immunotherapy Response in a Humanized Melanoma Mouse Model” (Pharmaceuticals, 2025)
Like-named read-outs stand apart in the source and are kept apart here. Each block holds one molecule with its values, some of them ahead of it.

How the values were obtained:
active human GZB [1] = biological target: T1, active human GZB (Homo sapiens, UniProt P10144); test: Fluorometric human GZB enzymatic inhibition assay (ab157403); assay type: biochemical; parameters: Each dilution was combined with 0.1 µg/µL of active GZB protein (ab285779); purchased ab285779; details: 0.1 µg/µL active GZB, 5000 to 0.00002048 nM, 50 µL, duplicate, kinetic mode after 90 min at 27 °C, CI: 2.95–5.98, read-out: inhibition constant (Ki)
T1 sequence (P10144 21-247): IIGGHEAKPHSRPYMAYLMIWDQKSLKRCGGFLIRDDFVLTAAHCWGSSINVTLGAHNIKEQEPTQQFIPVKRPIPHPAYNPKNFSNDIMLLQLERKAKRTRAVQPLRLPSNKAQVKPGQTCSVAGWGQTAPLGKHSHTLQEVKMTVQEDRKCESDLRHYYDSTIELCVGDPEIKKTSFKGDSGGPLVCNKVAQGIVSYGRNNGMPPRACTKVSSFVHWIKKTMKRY
Protocol: (§1) NOTA-CYT-200 was synthesized (CytoSite Biopharma, Sudbury, MA, USA) with a high chemical purity (>95%) and characterized using mass spectrometry. We performed a fluorometric human GZB activity assay (ab157403) to determine the inhibitor constant (Ki) of NOTA-CYT-200 for active human GZB enzyme activity in vitro. NOTA-CYT-200 was serially diluted with GZB assay buffer, starting from 5000 to 0.00002048 nanomolar. Each dilution was combined with 0.1 µg/µL of active GZB protein (ab285779) and the provided fluorophore. Each well contained a total volume of 50 µL, and all the samples were tested in duplicate using a microplate reader in kinetic mode (BioTek Cytation5, Winooski, VT, USA) after 90 min of incubation at 27 °C. The in vivo specificity of NOTA-CYT-200 labeled with 68gallium (^68Ga-NOTA-CYT-200) for the active human GZB protein was evaluated in non-tumor-bearing naive NSG mice (n = 8) following a subcutaneous injection of 80 µL of Matrigel alone (Corning™ Matrigel™ Membrane Matrix) or 65 µL of Matrigel containing 15 µL of active human GZB protein (0.05 µg/µL, totaling 0.75 µg GZB) into each animal’s shoulder. […] The uptake of ^68Ga-NOTA-CYT-200, measured as standard uptake values (SUVs) within the implanted regions, was assessed using the VivoQuant™ software, version 4.0 (InVicro, Needham, MA, USA). […]

active human GZB [2] = biological target: T1, active human GZB; test: PET/CT liver uptake (LBR) in humanized NSG mice with G361 melanoma; assay type: in vivo; details: for liver-to-blood ratio (LBR): n = 8, mean ± SEM
Protocol: (§2) Human melanoma G361 (ATCC®) cells were cultured in McCoy’s Medium (Thermo-Fisher, Waltham, MA, USA) supplemented with 10% fetal bovine serum (Thermo-Fisher) and 1% penicillin–streptomycin (Thermo-Fisher) at 37 °C with 5% CO2. The mice were then subcutaneously (s.c.) implanted with 2 × 10^6 G361 cells suspended in Matrigel and 100 µL of phosphate-buffered saline (Sigma-Aldrich, St. […] To estimate the tumor volume, both the longest and shortest perpendicular diameters were measured. These measurements were then combined using a standard method commonly employed in preclinical studies to approximate the tumor volume, providing a reliable estimate of the three-dimensional tumor size. Four days after tumor implantation, the tumors measured 336 ± 38 mm^3. The mice were then randomly assigned to receive three doses at three-day intervals of either 200 µg/100 µg of an anti-PD1/CTLA4 combination therapy (combination group, n = 15), 200 µg of anti-PD1 as a monotherapy (monotherapy group, n = 15), or a vehicle solution (controls, n = 12) via an intraperitoneal (i.p.) injection. A subset of mice (combination: n = 8, monotherapy: n = 9, controls: n = 6) underwent PET/CT imaging before treatment (baseline), as well as 4 days (timepoint 2), 1 week (timepoint 3), and 2 weeks (timepoint 4) after the treatment began (Figure 7). ^68Gallium was obtained by eluting a ^68Ga/^68Ge generator (Eckert and Ziegler, Berlin, Germany) with 0.1 molar HCl. A total of 2 mL of eluted ^68gallium was mixed with 100 µL of NOTA-CYT-200, stored in a stock solution of 1 mg/mL of metal-free water (OmniTrace Ultra, Millipore, Burlington, MA, USA) and two molar HEPES buffer to adjust the pH to 3.5–4.0. The reaction was incubated at 95 °C for 10 min. The mixture was then adjusted to a pH of 7.0 using sodium hydroxide (NaOH) before being administered intravenously via the tail vein. A total of 3.96 MBq ± 0.81 of ^68Ga-NOTA-CYT-200 was injected 60 ± 5 min prior to PET/CT acquisition. The PET/CT images were acquired in static mode using a small animal Argus PET/CT scanner (Sedecal, Madrid, Spain) in two bed positions over 20 min. The PET images were reconstructed using (2 iterations and 16 subsets) 2D-OSEM and corrected for randoms and scatter. Post-acquisition, the PET/CT images were analyzed by two blinded investigators using the VivoQuant™ software, version 4.0 (InVicro). Standard uptake values (SUVs) for the tumor, liver, and colon were normalized to the blood pool activity measured by drawing a region of interest around the left ventricle of the heart, yielding target-to-background ratios (TBR for tumor, LBR for liver, and CBR for colon). This normalization accounts for the nonspecific background signal and enables a comparison of the uptake across the groups and imaging timepoints. Prism (version 9.2; GraphPad) was used to perform quantitative data analyses. The data are presented as the mean ± SEM. The means of the two groups were compared using unpaired Student’s t-tests when appropriate.

active human GZB [3] = biological target: T1, active human GZB; assay type: in vivo; details: for mean TBR: mean ± SEM
Protocol: as §2

active human GZB [4] = biological target: T1, active human GZB; test: PET/CT intestinal/colon uptake (CBR) in humanized NSG mice with G361 melanoma; assay type: in vivo; details: mean ± SEM
Protocol: as §2

active human GZB protein = test: PET uptake in subcutaneous Matrigel implants with or without active GZB (in vivo specificity); details: n = 8, SUV normalized to blood pool, 1 h after i.v. 4.39 MBq, mean ± SEM
Protocol: as §1

in vivo = test: in vivo; parameters: species or system NSG mice; details: mouse; for tissue uptake at 1 h: NSG, iv, total radioactivity
Protocol: The ^68Ga-NOTA-CYT-200 biodistribution was evaluated for each treatment group four days after the initial dose. Major organs, such as the tumor, heart, lungs, liver, spleen, stomach, pancreas, intestines, kidneys, muscles, bones, skin, and brain from each mouse, were excised exactly one hour after the i.v. administration of 52.83 µCi ± 0.87 (controls, n = 3), 41.83 µCi ± 5.93 (mono, n = 4), or 34.65 µCi ± 3.82 (combination, n = 4) ^68Ga-NOTA-CYT-200. Each organ was weighed individually before measuring the activity with an automatic gamma counter (PerkinElmer Wallac Wizard 2480, Waltham, MA, USA).

- Ki (active human GZB [1]): 4.2 nM
Structure (SMILES): CC[C@H](C)[C@H](NC(=O)CNC(=O)CNC(=O)[C@H](CCC(=O)O)NC(=O)Cc1ccc(CC2CN(CC(=O)O)CCN(CC(=O)O)CCN2CC(=O)O)cc1)C(=O)N[C@H]1CCc2cccc3c2N(C1=O)[C@H](C(=O)N[C@H]1CC(=O)OC1O)C3 (stereo partly shown) [NOTA-CYT-200]

- liver-to-blood ratio (LBR) (active human GZB [2]; baseline, combination): 2.98 ± 0.34
- liver-to-blood ratio (LBR) (active human GZB [2]; day 4, combination, p < 0.0001 vs baseline): 6.93 ± 1.04
- liver-to-blood ratio (LBR) (active human GZB [2]; day 7, combination, p < 0.0001 vs baseline): 7.16 ± 1.03
- liver-to-blood ratio (LBR) (active human GZB [2]; day 14, combination, p = 0.91 vs baseline, p = 0.0004 and 0.0001 vs days 4 and 7): 3.52 ± 0.27
- LBR change versus baseline (active human GZB [2]; days 7 and 14, monotherapy, n = 9, p = 0.93 and p = 0.71): remained comparable to baseline
- mean TBR (active human GZB [3]; baseline, combination (anti-PD1/CTLA4), n = 8): 1.47 ± 0.2
- mean TBR (active human GZB [3]; baseline, monotherapy (anti-PD1), n = 9): 1.25 ± 0.17
- off-target binding in tumors of the control group (active human GZB [3]; control group (vehicle)): some off-target binding
- highest TBR on day 4 or day 7 (active human GZB [3]; controls, n = 6): 1.75 ± 0.39
- TBR, responder analysis (active human GZB [3]; day 4, treatment non-responders (TNRs), n = 6, p = 0.02 vs controls): 2.7 ± 0.9
- TBR, responder analysis (active human GZB [3]; day 4, treatment responders (TRs), n = 3, p < 0.0001 vs controls): 4.0 ± 1.2
- mean TBR (active human GZB [3]; day 4 after treatment start, combination (anti-PD1/CTLA4), n = 8, p < 0.0001 vs controls, p = 0.027 vs monotherapy): 3.88 ± 0.47
- mean TBR (active human GZB [3]; day 4 after treatment start, controls (vehicle), n = 6): 1.15 ± 0.13
- mean TBR (active human GZB [3]; day 4 after treatment start, monotherapy (anti-PD1), n = 9, p = 0.0005 vs controls): 2.84 ± 0.3
- mean TBR (active human GZB [3]; day 7, combination (anti-PD1/CTLA4), n = 8, p = 0.0052 vs monotherapy, p = 0.0003 vs controls): 3.5 ± 0.48
- mean TBR (active human GZB [3]; day 7, controls (vehicle), n = 6): 1.69 ± 0.2
- mean TBR (active human GZB [3]; day 7, monotherapy (anti-PD1), n = 9, p = 0.59 vs controls): 2.14 ± 0.11
- mean TBR (active human GZB [3]; day 14, combination (anti-PD1/CTLA4), n = 8, p = 0.01 vs monotherapy, p = 0.05 vs controls): 3.05 ± 0.43
- mean TBR (active human GZB [3]; day 14, controls (vehicle), n = 6): 1.97 ± 0.28
- mean TBR (active human GZB [3]; day 14, monotherapy (anti-PD1), n = 9, p = 0.88 vs controls): 1.75 ± 0.15
- highest TBR on day 4 or day 7 (active human GZB [3]; treatment non-responders (TNRs), n = 6, p = 0.175 vs controls): 2.73 ± 0.88
- highest TBR on day 4 or day 7 (active human GZB [3]; treatment responders (TRs), n = 3, p = 0.0002 vs controls, p = 0.0109 vs TNRs): 4.28 ± 1.20
- intestinal/colon-to-blood ratio (CBR) (active human GZB [4]; baseline, combination, n = 8): 3.5 ± 0.62
- intestinal/colon-to-blood ratio (CBR) (active human GZB [4]; baseline, controls, n = 6): 2.11 ± 0.56
- intestinal/colon-to-blood ratio (CBR) (active human GZB [4]; baseline, monotherapy, n = 9): 2.68 ± 0.43
- intestinal/colon-to-blood ratio (CBR) (active human GZB [4]; day 4, combination, n = 8, p = 0.029 vs baseline): 6.81 ± 1.21
- intestinal/colon-to-blood ratio (CBR) (active human GZB [4]; day 4, monotherapy, n = 9, p = 0.07 vs baseline): 5.41 ± 0.98
- intestinal/colon-to-blood ratio (CBR) (active human GZB [4]; day 7, combination, n = 8, p = 0.96 vs baseline): 6.21 ± 1.23
- intestinal/colon-to-blood ratio (CBR) (active human GZB [4]; day 7, monotherapy, n = 9, p = 0.8 vs baseline): 3.75 ± 0.57
- intestinal/colon-to-blood ratio (CBR) (active human GZB [4]; day 14, combination, n = 8, p = 0.99 vs baseline): 4.09 ± 0.97
- intestinal/colon-to-blood ratio (CBR) (active human GZB [4]; day 14, monotherapy, n = 9, p = 0.99 vs baseline): 2.25 ± 0.36
- tissue uptake at 1 h (in vivo; 41.83 uCi, kidney uptake): 1.47 ± 0.37 %ID/g
- tissue uptake at 1 h (in vivo; 41.83 uCi, tumor uptake): 0.25 ± 0.06 %ID/g
- tissue uptake at 1 h (in vivo; 52.83 uCi, intestinal uptake): 0.17 ± 0.13 %ID/g
- tissue uptake at 1 h (in vivo; 52.83 uCi, kidney uptake): 1.32 ± 0.84 %ID/g
- tissue uptake at 1 h (in vivo; 52.83 uCi, tumor uptake): 0.12 ± 0.03 %ID/g
Structure (SMILES): CC[C@H](C)[C@H](NC(=O)CNC(=O)CNC(=O)[C@H](CCC(=O)O)NC(=O)Cc1ccc(CC2CN(CC(=O)O)CCN(CC(=O)O)CCN2CC(=O)O)cc1)C(=O)N[C@H]1CCc2cccc3c2N(C1=O)[C@H](C(=O)N[C@H]1CC(=O)OC1O)C3 (stereo partly shown) [^68Ga-NOTA-CYT-200, metal not drawn]
- LBR change versus baseline (active human GZB [2]; day 4, monotherapy, n = 9, p = 0.023): significant LBR increase on day 4 versus baseline
- LBR change versus baseline (active human GZB [2]; post-treatment timepoints, controls, n = 6, p 0.43 to 0.71): none of the post-treatment LBR values were significantly different from baseline
- inhibition of the inflammatory response to immunotherapy by tracer injection (active human GZB [3]; in vivo): did not observe any obvious inhibition of the inflammatory response to immunotherapy
- radiotracer uptake in implant (active human GZB protein; Matrigel containing active GZB protein (0.75 µg), p = 0.0045 vs Matrigel without protein): 6.18 ± 2.92
- radiotracer uptake in implant (active human GZB protein; Matrigel without the protein): 2.48 ± 1.01
- main organ of tracer elimination (in vivo): kidney as the main organ responsible for tracer elimination
